# Measurements from US10669290B2, “Beta-lactamase inhibitors” (priority 2012, dated 2020).
# pIC50: −log10 of the molar value.
# Tests used:
# E. cl 144200 p99 AmpC = experiment: Broth microdilution MIC, E. cloacae 144200; assay type: cell-based; conditions: fixed ceftazidime 4 μg/mL, CAMHB, 16-20 hours 37° C.
# How it was run: (§1)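 CAMHB; compound 32–0.25 μg/mL, 2-fold dilutions; β-lactam partner static at 4 μg/ml; CLSI inoculum from 3-5 h culture; 16-20 h, 37° C; visual MIC.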
# E. coli ESBL4 CTX-M-15 = experiment: Broth microdilution MIC, E. coli ESBL4; assay type: cell-based; conditions: fixed ceftazidime 4 μg/mL, CAMHB, 16-20 hours 37° C.
# How it was run: as §1
# K.P. 156319 KPC-3 = experiment: Broth microdilution MIC, K. pneumoniae 156319; assay type: cell-based; conditions: fixed meropenem 4 μg/mL, CAMHB, 16-20 hours 37° C.
# OXA-1 = target: T1, OXA-1 (Escherichia coli, UniProt P13661); experiment: β-Lactamase inhibition, OXA-1 (nitrocefin substrate); assay type: biochemical
# T1 construct: made in house; host or cells: E. coli BL21 (DE3)
# Protocol: (§2) For SHV-5, Kpc-2, p99AmpC and OXA-1 β-lactamases, E. coli BL21 (DE3) bacterial cells carrying expression plasmids (expressed as native untagged proteins) for the individual β-lactamases were grown in 1 L of Superbroth (Teknova Inc. Hollister, Calif.) supplemented with 100 μg/ml kanamycin selection and 1×5052 (0.5% glycerol, 0.05% glucose and 0.2% α-lactose) at 35° C. for 18-20 hours. Cells were harvested by centrifugation (4,000×g, 4° C., 20 min), resuspended in 50 ml of 10 mM HEPES pH 7.5 ( 1/20 of the initial volume). The cells were lysed by sonication (5 pulses of 45 seconds) at 45 W on ice. The lysates were clarified by centrifugation at 10,000×g for 40 minutes at 4° C. Samples were diluted 5-fold in 50 mM sodium acetate pH 5.0, stored overnight at 4° C., after which they were centrifuged at 10,000×g for 30 minutes to clarify, and filtered through 0.45 µm filters. The samples were loaded onto a 5 ml Capto S sepharose cation exchange column (GE Healthcare) pre-equilibrated with 50 mM sodium acetate pH 5.0. […] Active fractions were pooled concentrated, quantitated by BCA protein determination (Thermo Scientific, Rockford, Ill.), dialyzed into PBS and frozen at −80° C. in 20% glycerol until use.
# (§3) An equal volume of diluted enzyme stock was added, and the plates were incubated at 37° C. for 15 min. […] Absorbance at 486 nm was immediately monitored for 10 min using a Biotek Powerwave XS2 microplate spectrophotometer using the GEN5 software package (Biotek Instruments, Winooski Vt.). In an analogous fashion, imipenem was used as substrate for Kpc-2 and Cefotaxime was used for SHV-5, while changes in absorbance upon hydrolysis of the β-lactam ring were monitored at 300 nm and 260 nm respectively in UV-transparent 96-well microtiter assay plates. Maximum rates of hydrolysis were compared to those in control wells (without inhibitors), and percentages of enzyme inhibition were calculated for each concentration of inhibitor. […]
# VIM-2 = target: T2, VIM-2 (Escherichia coli, UniProt Q5U7L7); experiment: β-Lactamase inhibition, VIM-2 (nitrocefin substrate); assay type: biochemical
# T2 construct: made in house; host or cells: E. coli BL21 (DE3)
# Protocol: as §2, with “use. […]” for “use.”
# as §3
# P. aerug. Ps296 VIM-2 = experiment: Broth microdilution MIC, P. aeruginosa Ps296; assay type: cell-based; conditions: fixed meropenem 4 μg/mL, CAMHB, 16-20 hours 37° C.
# How it was run: as §1
# K.P. A-1797 KPC-2 VIM-4 = experiment: Broth microdilution MIC, K. pneumoniae A-1797; assay type: cell-based; conditions: fixed meropenem 4 μg/mL, CAMHB, 16-20 hours 37° C.
# KPC-2 = target: T3, KPC-2 (Klebsiella pneumoniae, UniProt Q9F663); experiment: β-Lactamase inhibition, KPC-2 (imipenem substrate); assay type: biochemical
# T3 construct: made in house; host or cells: E. coli BL21 (DE3)
# Protocol: as §2, §3
# p99 AmpC = target: T4, p99 AmpC (Enterobacter cloacae, UniProt P05364); experiment: β-Lactamase inhibition, p99 AmpC (nitrocefin substrate); assay type: biochemical
# T4 construct: made in house; host or cells: E. coli BL21 (DE3)
# Protocol: For SHV-5, Kpc-2, p99AmpC and OXA-1 β-lactamases, E. coli BL21 (DE3) bacterial cells carrying expression plasmids (expressed as native untagged proteins) for the individual β-lactamases were grown in 1 L of Superbroth (Teknova Inc. Hollister, Calif.) supplemented with 100 μg/ml kanamycin selection and 1×5052 (0.5% glycerol, 0.05% glucose and 0.2% α-lactose) at 35° C. for 18-20 hours. Cells were harvested by centrifugation (4,000×g, 4° C., 20 min), resuspended in 50 ml of 10 mM HEPES pH 7.5 ( 1/20 of the initial volume). The cells were lysed by sonication (5 pulses of 45 seconds) at 45 W on ice. The lysates were clarified by centrifugation at 10,000×g for 40 minutes at 4° C. Samples were diluted 5-fold in 50 mM sodium acetate pH 5.0, stored overnight at 4° C., after which they were centrifuged at 10,000×g for 30 minutes to clarify, and filtered through 0.45 µm filters. The samples were loaded onto a 5 ml Capto S sepharose cation exchange column (GE Healthcare) pre-equilibrated with 50 mM sodium acetate pH 5.0. The column was washed with 5 column volumes of 50 mM sodium acetate pH 5.0 to wash out unbound protein and a linear gradient of NaCl (0 to 500 mM) was used to elute the protein (over 16 CV) from the column. Fractions were assayed for β-lactamase activity using Centa (Calbiochem, Gibbstown, N.J.) or Nitrocefin (EMD Millipore chemicals, Darmstadt, Germany) as a reporter β-lactamase substrate for activity in the isolated fractions. Active fractions were pooled, concentrated and further purified by gel filtration chromatography on a Superdex 75 prep grade gel filtration column (GE Healthcare, Piscataway, N.J.) pre-equilibrated in 50 mM Hepes pH 7.5, 150 mM NaCl. Active fractions were pooled concentrated, quantitated by BCA protein determination (Thermo Scientific, Rockford, Ill.), dialyzed into PBS and frozen at −80° C. in 20% glycerol until use.
# An equal volume of diluted enzyme stock was added, and the plates were incubated at 37° C. for 15 min. Nitrocefin was used as substrate for p99 AmpC, VIM-2 and OXA-1 and dispensed into each well at a final concentration of 100 μM. Absorbance at 486 nm was immediately monitored for 10 min using a Biotek Powerwave XS2 microplate spectrophotometer using the GEN5 software package (Biotek Instruments, Winooski Vt.). In an analogous fashion, imipenem was used as substrate for Kpc-2 and Cefotaxime was used for SHV-5, while changes in absorbance upon hydrolysis of the β-lactam ring were monitored at 300 nm and 260 nm respectively in UV-transparent 96-well microtiter assay plates. Maximum rates of hydrolysis were compared to those in control wells (without inhibitors), and percentages of enzyme inhibition were calculated for each concentration of inhibitor. The concentration of inhibitor needed to reduce the initial rate of hydrolysis of substrate by 50% (IC50) was calculated as the residual activity of β-lactamase at 486 nm using GraFit version 7 kinetics software package (Erithacus Software, Surrey, UK).
# Using the methodology described above, examples of the current invention were evaluated for their ability to inhibit β-lactamase enzymes from all four Ambler classifications (A through D). […] NT=Not tested.
# SHV-5 = target: T5, SHV-5 (Klebsiella pneumoniae, UniProt P0A3M1); experiment: β-Lactamase inhibition, SHV-5 (cefotaxime substrate); assay type: biochemical
# T5 construct: made in house; host or cells: E. coli BL21 (DE3)
# Protocol: as §2, §3
# T1 sequence (P13661 26-276): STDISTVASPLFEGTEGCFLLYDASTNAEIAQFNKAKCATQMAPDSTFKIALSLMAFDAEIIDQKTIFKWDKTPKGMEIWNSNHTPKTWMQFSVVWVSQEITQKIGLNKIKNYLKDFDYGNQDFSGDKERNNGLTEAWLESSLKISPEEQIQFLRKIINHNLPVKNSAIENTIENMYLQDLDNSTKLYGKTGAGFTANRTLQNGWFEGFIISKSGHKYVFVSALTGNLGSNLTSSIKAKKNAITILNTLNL
# T3 sequence (Q9F663 25-293 limits assumed): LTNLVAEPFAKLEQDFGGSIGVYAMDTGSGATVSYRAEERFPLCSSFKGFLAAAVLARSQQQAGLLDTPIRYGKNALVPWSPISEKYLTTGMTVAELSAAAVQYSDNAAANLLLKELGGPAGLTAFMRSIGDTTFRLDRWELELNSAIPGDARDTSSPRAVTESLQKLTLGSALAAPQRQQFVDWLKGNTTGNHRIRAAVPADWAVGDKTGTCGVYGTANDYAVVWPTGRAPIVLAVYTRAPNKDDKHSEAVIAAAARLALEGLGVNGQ
# T4 sequence (P05364 21-381): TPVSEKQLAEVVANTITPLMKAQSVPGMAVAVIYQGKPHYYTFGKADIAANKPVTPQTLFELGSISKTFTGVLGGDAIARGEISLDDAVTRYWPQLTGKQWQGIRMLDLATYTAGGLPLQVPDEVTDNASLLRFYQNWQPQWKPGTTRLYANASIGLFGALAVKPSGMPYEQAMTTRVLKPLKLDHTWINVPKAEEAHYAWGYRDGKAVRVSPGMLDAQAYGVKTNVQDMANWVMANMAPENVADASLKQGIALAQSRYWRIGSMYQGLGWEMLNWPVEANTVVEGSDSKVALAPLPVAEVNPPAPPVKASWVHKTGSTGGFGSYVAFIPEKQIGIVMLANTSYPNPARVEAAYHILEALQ
# T5 sequence (P0A3M1 22-286): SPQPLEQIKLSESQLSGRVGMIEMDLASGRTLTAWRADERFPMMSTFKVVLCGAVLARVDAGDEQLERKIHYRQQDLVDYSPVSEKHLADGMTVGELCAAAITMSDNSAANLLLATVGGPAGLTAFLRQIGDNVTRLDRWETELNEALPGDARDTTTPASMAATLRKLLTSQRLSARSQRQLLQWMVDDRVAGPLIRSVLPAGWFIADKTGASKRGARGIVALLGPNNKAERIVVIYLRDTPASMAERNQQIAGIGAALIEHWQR
SMILES,"MIC of exemplary compounds in presence of fixed β-lactams, Fixed CAZ, E. cl 144200 p99 AmpC (E. cl 144200 p99 AmpC)","MIC of exemplary compounds in presence of fixed β-lactams, Fixed CAZ, E. coli ESBL4 CTX-M-15 (E. coli ESBL4 CTX-M-15)","MIC of exemplary compounds in presence of fixed β-lactams, Fixed Mero, K.P. 156319 KPC-3 (K.P. 156319 KPC-3)",pIC50 (OXA-1),pIC50 (VIM-2),"MIC of exemplary compounds in presence of fixed β-lactams, Fixed Mero, P. aerug. Ps296 VIM-2 (P. aerug. Ps296 VIM-2)","MIC of exemplary compounds in presence of fixed β-lactams, Fixed Mero, K.P. A-1797 KPC-2 VIM-4 (K.P. A-1797 KPC-2 VIM-4)",pIC50 (KPC-2),pIC50 (p99 AmpC),pIC50 (SHV-5)
"NC[C@@H]1CC[C@@H](CC(=O)N[C@H]2Cc3cccc(C(=O)O)c3OB2O)C[C@H]1CN (mixture of isomers) [Example 18, (3R)-3-[[2-[(1S,3S,4S)-3,4-bis(aminomethyl)cyclohexyl]acetyl]amino]-2-hydroxy-3,4-dihydro-1,2-benzoxaborinine-8-carboxylic acid and (3R)-3-[[2-[(1R,3R,4R)-3,4-bis(aminomethyl)cyclohexyl]acetyl]amino]-2-hydroxy-3,4-dihydro-1,2-benzoxaborinine-8-carboxylic acid]",C (C represents the MIC in the presence of <4 μg/mL of a β-lactamase inhibitor of exemplary compounds),C (C represents the MIC in the presence of <4 μg/mL of a β-lactamase inhibitor of exemplary compounds),C (C represents the MIC in the presence of <4 μg/mL of a β-lactamase inhibitor of exemplary compounds),> 7.00,> 7.00,C (C represents the MIC in the presence of <4 μg/mL of a β-lactamase inhibitor of exemplary compounds),B (B represents the MIC in the presence of between 8 and 32 μg/mL of a β-lactamase inhibitor of exemplary compounds),> 7.00,> 7.00,> 7.00
"N[C@H]1CC(C(=O)N[C@H]2Cc3cccc(C(=O)O)c3OB2O)C[C@@H]1N (mixture of isomers) [Example 19, (3R)-3-[[(3S,4S)-3,4-diaminocyclopentanecarbonyl]amino]-2-hydroxy-3,4-dihydro-1,2-benzoxaborinine-8-carboxylic acid and (3R)-3-[[(3R,4R)-3,4-diaminocyclopentanecarbonyl]amino]-2-hydroxy-3,4-dihydro-1,2-benzoxaborinine-8-carboxylic acid]",C (C represents the MIC in the presence of <4 μg/mL of a β-lactamase inhibitor of exemplary compounds),C (C represents the MIC in the presence of <4 μg/mL of a β-lactamase inhibitor of exemplary compounds),C (C represents the MIC in the presence of <4 μg/mL of a β-lactamase inhibitor of exemplary compounds),> 7.00,> 7.00,C (C represents the MIC in the presence of <4 μg/mL of a β-lactamase inhibitor of exemplary compounds),C (C represents the MIC in the presence of <4 μg/mL of a β-lactamase inhibitor of exemplary compounds),> 7.00,> 7.00,6.00 to 7.00
"N[C@@H]1CC[C@@H](C(=O)N[C@H]2Cc3cccc(C(=O)O)c3OB2O)C[C@H]1N (mixture of isomers) [Example 20, (3R)-3-[[(1S,3S,4S)-3,4-diaminocyclohexanecarbonyl]amino]-2-hydroxy-3,4-dihydro-1,2-benzoxaborinine-8-carboxylic acid and (3R)-3-[[(1R,3R,4R)-3,4-diaminocyclohexanecarbonyl]amino]-2-hydroxy-3,4-dihydro-1,2-benzoxaborinine-8-carboxylic acid]",C (C represents the MIC in the presence of <4 μg/mL of a β-lactamase inhibitor of exemplary compounds),C (C represents the MIC in the presence of <4 μg/mL of a β-lactamase inhibitor of exemplary compounds),C (C represents the MIC in the presence of <4 μg/mL of a β-lactamase inhibitor of exemplary compounds),6.00 to 7.00,> 7.00,C (C represents the MIC in the presence of <4 μg/mL of a β-lactamase inhibitor of exemplary compounds),B (B represents the MIC in the presence of between 8 and 32 μg/mL of a β-lactamase inhibitor of exemplary compounds),6.00 to 7.00,> 7.00,5.00 to 6.00
